# Data published in patent US4868191A, “Alkaloid compounds, and pharmaceutical compositions containing them” (Harbor Branch Oceanographic Institution, Inc., priority 1988, dated 1989).
# What was measured:
# [1] = tested on: P388 mouse leukemia cells; assay: P338 (P388) Mouse Leukemia Cell Assay, in vitro; type: cell-based; conditions: 48 hours
# Experimental: (§1) The following assay methods are utilized to evaluate the antitumor activity of the alkaloid compounds of the invention.
# P338 Mouse Leukemia Cell Assay
# (§2) Maintenance of Cell Lines
# P338 mouse leukemis cells are grown in Dulbecco MEM medium with 10% horse serum, 4 mM glutamine, and 20 ug/ml gentamycin (Biologos, Inc.). Cells are incubated in humidified air containing 10% CO2 at 37° C. and subcultured 2 time per week.
# 1. Add compound to each well of a 24-well plate to tube and allow solvent to evaporate to dryness.
# 2. Add 2 ml (1.2×10^5) cells to each well or tube and mix.
# 3. Incubate in 10% CO2 at 37° C. for 48 hours.
# 4. Read plates with an inverted microscope, scoring activity from 1+ to 4+ as follows: ND (not detectable), 90% 1+, 75-90% 2+, 50-74% 3+, 25-49% 4+, 25% of control growth.
# Alternatively, the activity may be designated as IC50 concentration which is the concentration of compound required to inhibit 50% of cell growth on the plate.
# Cell counts are performed on each tube and results are reported as percent of control.
# [2] = tested on: T-47D human breast cancer cells; assay: Human Tumor Cell Line Assay, T-47D; type: cell-based; conditions: T47D, 120 hours, read-out: T-47D activity score (cell density vs control)
# Experimental: as §1
# (§3) Human Tumor Cell Line Assay
# as §2
# (§4) HCT-8 human colon tumor cells are grown in RPMI 1640 medium. A-549 human lung carcinoma cells are grown in Dublecco MEM medium. T-47D human breast cancer cells are cultured in Eagles MEM medium. All media (Biologos, Inc.) are supplemented with 10% fetal bovine serum and contain 50 ug/ml gentamicin. All humand tumor cell lines are incubated in humidified air containing 5% CO2 at 37° C. and subcultured once a week. The seeding levels are 200,000 T-47D cells, 60,000 HCT-8 cells and 300,000 A-549 cells per T-25 Flask. Vinblastine is used as a positive control.
# (§5) 2. Incubate is a CO2 incubator for 48 hours.
# (§6) 3. Add compound to each well and incubate for an additional 120 hours.
# (§7) 4. Discard medium and stain with methylene blue (HCT-8) or crystal violet (A-549 and T-47D).
# (§8) 5. Compare cell density of compound-treated with that of the control (no compound added) as follows: ND (not detectable), 90% 1+, 75-90% 2+, 50-74% 3+, 25-49% 4+, 25% of control growth.
# (§9) The positive control is Vinblastine in aqueous solution at the following concentrations: […]
# [3] = Immunomodulatory activity, two-way mixed lymphocyte reaction assay (% LCV); type: cell-based, murine; conditions: mouse, lymphocytes
# Source text: This example concerns immunomodulatory activity of compounds of the invention on murine derived, two-way mixed lymphocyte reaction assay.
# [4] = tested on: HCT-8 human colon tumor cells; assay: Human Tumor Cell Line Assay, HCT-8; type: cell-based; conditions: 120 hours, read-out: HCT-8 activity score (cell density vs control)
# Experimental: as §1, §3, §2, §4, §5, §6, §7, §8, §9
# [5] = tested on: A-549 human lung carcinoma cells; assay: Human Tumor Cell Line Assay, A-549; type: cell-based; conditions: 120 hours, read-out: A-549 activity score (cell density vs control)
# Experimental: as §1, §3, §2, §4, §5, §6, §7, §8, §9
# Mouse P388 = Mouse P388 in vivo antitumor activity (T/C); conditions: Mouse P388, at 5 mg/kg
Compound,IC50 [1] [µg/mL],activity at 0.01 µg/mL ([2]; 0.01 ug/ml) [%],activity at 0.1 µg/mL ([2]; 0.1 ug/ml) [%],activity at 1 µg/mL ([2]; 1 ug/ml) [%],activity at 2 µg/mL ([2]; 2 ug/ml) [%],viability ([3]; 0.01 ug/well) [%],viability ([3]; 0.1 ug/well) [%],viability ([3]; 1.0 ug/well) [%],viability ([3]; 10.0 ug/well) [%],activity at 0.01 µg/mL ([4]; 0.01 ug/ml) [%],activity at 0.1 µg/mL ([4]; 0.1 ug/ml) [%],activity at 1 µg/mL ([4]; 1 ug/ml) [%],activity at 2 µg/mL ([4]; 2 ug/ml) [%],"activity at 0.01 µg/mL ([5]; A549, 0.01 ug/ml) [%]","activity at 0.1 µg/mL ([5]; A549, 0.1 ug/ml) [%]","activity at 1 µg/mL ([5]; A549, 1 ug/ml) [%]","activity at 2 µg/mL ([5]; A549, 2 ug/ml) [%]",in vivo T/C (Mouse P388) [%]
"CN(C)CCc1c2ncsc2c2c3c(c4ccccc4nc13)C=CN2C [Dercitin 1, dercitin 1]",0.05,> 90,< 25,< 25,< 25,56,48,46,67,> 90,< 25,< 25,< 25,> 90,< 25,< 25,< 25,170
"CN(C)CCc1c2c3c(c4scnc14)N(C)CCC3c1ccccc1N2 (stereo not shown) [Tetrahydrodercitin 1, tetrahydrodercitin 1]",–,–,–,–,–,100,91,49,41,–,–,–,–,–,–,–,–,–
